Measurements published in PubChem BioAssay (NCI).
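Where inhibition never reached the appropriate level, the endpoint shown equals the highest concentration tested. Otherwise, values were interpolated linearly from a five-concentration, 48-hour dose response in 96-well plates. At the GI50, growth is halved. TGI: concentration producing complete growth inhibition.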

Legend:
Assay in all cases: NCI tumour cell line growth inhibition, 48 h
U251 CNS = test system: U251 CNS
SK-OV-3 ovarian = test system: SK-OV-3 ovarian
SNB-19 CNS = test system: SNB-19 CNS
HS 578T breast = test system: HS 578T breast
DU-145 prostate = test system: DU-145 prostate
HCT-116 colon = test system: HCT-116 colon
MDA-MB-231 breast = test system: MDA-MB-231 breast
SF-295 CNS = test system: SF-295 CNS
PC-3 prostate = test system: PC-3 prostate
SW-620 colon = test system: SW-620 colon
K-562 leukemia = test system: K-562 leukemia
OVCAR-5 ovarian = test system: OVCAR-5 ovarian
SN12C renal = test system: SN12C renal
MDA-MB-435 = test system: MDA-MB-435
SR leukemia = test system: SR leukemia
OVCAR-4 ovarian = test system: OVCAR-4 ovarian
MOLT-4 leukemia = test system: MOLT-4 leukemia
CCRF-CEM leukemia = test system: CCRF-CEM leukemia
HCC-2998 colon = test system: HCC-2998 colon
SF-268 CNS = test system: SF-268 CNS
CAKI-1 renal = test system: CAKI-1 renal
KM12 colon = test system: KM12 colon
LOX IMVI melanoma = test system: LOX IMVI melanoma
UACC-62 melanoma = test system: UACC-62 melanoma
A498 renal = test system: A498 renal
SF-539 CNS = test system: SF-539 CNS
NCI-H522 lung = test system: NCI-H522 lung
M14 melanoma = test system: M14 melanoma
UO-31 renal = test system: UO-31 renal
OVCAR-8 ovarian = test system: OVCAR-8 ovarian
NCI-H460 lung = test system: NCI-H460 lung
OVCAR-3 ovarian = test system: OVCAR-3 ovarian
UACC-257 melanoma = test system: UACC-257 melanoma
RXF 393 renal = test system: RXF 393 renal
IGROV1 ovarian = test system: IGROV1 ovarian
MDA-MB-468 breast = test system: MDA-MB-468 breast
RPMI-8226 leukemia = test system: RPMI-8226 leukemia
HCT-15 colon = test system: HCT-15 colon
HOP-92 NSCLC = test system: HOP-92 NSCLC
NCI-H226 lung = test system: NCI-H226 lung
ACHN renal = test system: ACHN renal
MALME-3M melanoma = test system: MALME-3M melanoma
EKVX NSCLC = test system: EKVX NSCLC
NCI-H23 lung = test system: NCI-H23 lung
HL-60(TB) leukemia = test system: HL-60(TB) leukemia
HOP-62 NSCLC = test system: HOP-62 NSCLC
NCI/ADR-RES ovarian = test system: NCI/ADR-RES ovarian
SK-MEL-2 melanoma = test system: SK-MEL-2 melanoma
A549 NSCLC = test system: A549 NSCLC
TK-10 renal = test system: TK-10 renal
SK-MEL-28 melanoma = test system: SK-MEL-28 melanoma
SK-MEL-5 melanoma = test system: SK-MEL-5 melanoma
786-0 renal = test system: 786-0 renal

CN(C)CCn1c2ccccc2c2nc3ccc([N+](=O)[O-])cc3nc21
GI50 (U251 CNS): 0.772 µM | TGI (U251 CNS): 3.96 µM | GI50 (SK-OV-3 ovarian): 2.49 µM | TGI (SK-OV-3 ovarian): 7.5 µM | GI50 (SNB-19 CNS): 2.32 µM | TGI (SNB-19 CNS): 10.4 µM | GI50 (HS 578T breast): 2.16 µM | TGI (HS 578T breast): > 100 µM | GI50 (DU-145 prostate): 1.71 µM | TGI (DU-145 prostate): 9.91 µM | GI50 (HCT-116 colon): 0.752 µM | TGI (HCT-116 colon): 5.94 µM | GI50 (MDA-MB-231 breast): 1.87 µM | TGI (MDA-MB-231 breast): 5.7 µM | GI50 (SF-295 CNS): 0.477 µM | TGI (SF-295 CNS): 3.09 µM | GI50 (PC-3 prostate): 1.14 µM | TGI (PC-3 prostate): > 100 µM | GI50 (SW-620 colon): 0.691 µM | TGI (SW-620 colon): > 100 µM | GI50 (K-562 leukemia): 0.931 µM | TGI (K-562 leukemia): 11.3 µM | GI50 (OVCAR-5 ovarian): 2.31 µM | TGI (OVCAR-5 ovarian): 6.51 µM | GI50 (SN12C renal): 0.813 µM | TGI (SN12C renal): 4.62 µM | GI50 (MDA-MB-435): 2.3 µM | TGI (MDA-MB-435): > 100 µM | GI50 (SR leukemia): 0.322 µM | TGI (SR leukemia): 1.69 µM | GI50 (OVCAR-4 ovarian): 2.76 µM | TGI (OVCAR-4 ovarian): > 100 µM | GI50 (MOLT-4 leukemia): 0.41 µM | TGI (MOLT-4 leukemia): 2.9 µM | GI50 (CCRF-CEM leukemia): 0.667 µM | TGI (CCRF-CEM leukemia): 4.37 µM | GI50 (HCC-2998 colon): 1.47 µM | TGI (HCC-2998 colon): 3.72 µM | GI50 (SF-268 CNS): 1.75 µM | TGI (SF-268 CNS): 13.2 µM | GI50 (CAKI-1 renal): 0.368 µM | TGI (CAKI-1 renal): 2.71 µM | GI50 (KM12 colon): 1.53 µM | TGI (KM12 colon): 9.15 µM | GI50 (LOX IMVI melanoma): 0.541 µM | TGI (LOX IMVI melanoma): 1.95 µM | GI50 (UACC-62 melanoma): 0.928 µM | TGI (UACC-62 melanoma): 2.9 µM | GI50 (A498 renal): 1.74 µM | TGI (A498 renal): 4.56 µM | GI50 (SF-539 CNS): 0.645 µM | TGI (SF-539 CNS): 3.85 µM | GI50 (NCI-H522 lung): 0.988 µM | TGI (NCI-H522 lung): 4.22 µM | GI50 (M14 melanoma): 1.71 µM | TGI (M14 melanoma): > 100 µM | GI50 (UO-31 renal): 0.248 µM | TGI (UO-31 renal): 1.99 µM | GI50 (OVCAR-8 ovarian): 0.907 µM | TGI (OVCAR-8 ovarian): 5.51 µM | GI50 (NCI-H460 lung): 0.395 µM | TGI (NCI-H460 lung): 2.19 µM | GI50 (OVCAR-3 ovarian): 2.01 µM | TGI (OVCAR-3 ovarian): 7.34 µM | GI50 (UACC-257 melanoma): 1.86 µM | TGI (UACC-257 melanoma): 5.95 µM | GI50 (RXF 393 renal): 1.83 µM | TGI (RXF 393 renal): 5.83 µM | GI50 (IGROV1 ovarian): 1.07 µM | TGI (IGROV1 ovarian): 9.46 µM | GI50 (MDA-MB-468 breast): 0.514 µM | TGI (MDA-MB-468 breast): 2.27 µM | GI50 (RPMI-8226 leukemia): 1.23 µM | TGI (RPMI-8226 leukemia): 4.3 µM | GI50 (HCT-15 colon): 0.725 µM | TGI (HCT-15 colon): 4.06 µM | GI50 (HOP-92 NSCLC): 0.197 µM | TGI (HOP-92 NSCLC): 2.29 µM | GI50 (NCI-H226 lung): 1.27 µM | TGI (NCI-H226 lung): 3.26 µM | GI50 (ACHN renal): 0.322 µM | TGI (ACHN renal): 1.1 µM | GI50 (MALME-3M melanoma): 0.709 µM | TGI (MALME-3M melanoma): 3.41 µM | GI50 (EKVX NSCLC): 1.6 µM | TGI (EKVX NSCLC): 5 µM | GI50 (NCI-H23 lung): 1.2 µM | TGI (NCI-H23 lung): 3.64 µM | GI50 (HL-60(TB) leukemia): 0.256 µM | TGI (HL-60(TB) leukemia): 0.698 µM | GI50 (HOP-62 NSCLC): 1.08 µM | TGI (HOP-62 NSCLC): 4.76 µM | GI50 (NCI/ADR-RES ovarian): 1.28 µM | TGI (NCI/ADR-RES ovarian): 11.9 µM | GI50 (SK-MEL-2 melanoma): 3.27 µM | TGI (SK-MEL-2 melanoma): 7.64 µM | GI50 (A549 NSCLC): 0.438 µM | TGI (A549 NSCLC): 1.83 µM | GI50 (TK-10 renal): 2.35 µM | TGI (TK-10 renal): 6.37 µM | GI50 (SK-MEL-28 melanoma): 2.54 µM | TGI (SK-MEL-28 melanoma): > 100 µM | GI50 (SK-MEL-5 melanoma): 0.666 µM | TGI (SK-MEL-5 melanoma): 2.05 µM | GI50 (786-0 renal): 1.31 µM | TGI (786-0 renal): 6.55 µM
